This passage reports melting point results from a melting point compilation (Tetko et al.; mined from patent text by program, amines drawn as free bases though some values may be those of a salt).

A word on the melting point: it is the temperature of the solid-liquid transition.

Molecules are shown by their SMILES.

Regarding `O=S(=O)(c1ccc(F)cc1)n1ccc2ccccc21`, the melting point is 135 to 137 °C.

`COCCNc1c(N)cc(C(=O)O)cc1S(N)(=O)=O`: the melting point is 209 to 211 °C.

`CC=Cc1cc(-c2ccc(F)cc2)cc(C(=O)O)c1O` returned a melting point of 196 to 200 °C.

On to `CN(Cc1ccc(OC(=O)Cc2ccccc2Nc2c(Cl)cccc2Cl)cc1)CC(C)(C)SN=O`, for which the melting point is 126 to 130 °C.

As for `CC(=O)OCc1nc(C#N)cc(OCc2ccccc2)c1OCc1ccccc1`, the melting point fell in the range of 98 to 99 °C.

The compound `CC(C)(C)OC(=O)Nc1ccc(I)cc1[N+](=O)[O-]` yielded a melting point of 92 to 94 °C.

Compound `CCOC(=O)CCCCn1cnc2ccncc21` yielded a melting point of 45 to 47 °C.

The compound `O=C1CC(c2cccc(-n3ccnc3)c2)=Nc2cc(N3CC[C@@H](O)C3)c(-c3ccc(F)cc3)cc2N1` displayed a melting point of 155 to 158 °C.

In the case of `COC(=O)NCCOc1cc(-c2ccccc2)on1`, the melting point fell in the range of 95 to 96 °C.

`COc1ccnc2[nH]c(CO)cc12` registered a melting point of 210 to 212 °C.

`CN(C)/C=C/c1cc(OC2CCN(C(=O)OC(C)(C)C)CC2)ccc1C#N` yielded a melting point of 135 to 137 °C.

In turn, `CC(C)CN(C)c1cc(F)cc(C(=O)Nc2ccc(OCCN3CCOCC3)c3ccccc23)c1` registered a melting point of 126 to 128 °C.

The compound `CCCC[C@H](NC(=O)[C@H](CC(C)C)NC(=O)c1cccc(C)c1)C(=O)CSCc1ccco1` gave a melting point of 123 to 126 °C.

`Cc1ccc(C(=O)Nc2c(NC(=O)CN3CCN(c4ccccc4)CC3)ccc3c2C(=O)c2ccccc2C3=O)cc1` had a melting point of 270 to 271 °C.

On to `CCc1cccc2c3c([nH]c12)C(CC)(CC(N)=O)OCC3` (stereo not drawn), for which the melting point is 189 to 190 °C.

For the compound `CC(C)(NC(=O)CCn1ccnc1)c1ccc(Cl)cc1`, the melting point was in the range of 154 to 155 °C.

For `CN1C(=O)[C@H](NC(=O)CCc2cccc(C(F)(F)F)c2)N=C(c2ccccc2)c2ccccc21`, the melting point was in the range of 135 to 136 °C.

`CCCCn1ccc(C(=O)c2cc(C(C)(C)C)c(O)c(C(C)(C)C)c2)c1` yielded a melting point of 101 to 103 °C.

As to `Clc1ccc2c(c1)CSc1ccccc1O2`, the melting point amounted to 66.8 °C.

In turn, `CC(C)On1c(C2CCCCC2)nc2c(N)nc3ccccc3c21` yielded a melting point of 175 to 178 °C.

The compound `COc1ccc(C2(c3ccc(OC)cc3)CCN(C[C@H]3CN(C)[C@@H]4Cc5c[nH]c6cccc(c56)[C@@]4(OC)C3)CC2)cc1` displayed a melting point of 215 to 222 °C.

Compound `CC(C)(C)OC(=O)NC1CCCCCC=CC2CC2(C(=O)NS(=O)(=O)C2CC2)NC(=O)C2CC(OC(=O)c3ccc(CC(=O)O)cc3)CN2C1=O` (stereo not drawn) displayed a melting point of 154 to 156 °C.

Consider `CC(C)(C)Nc1nc(Cl)nc(Cl)n1`, for which the melting point is 129 to 130 °C.

With `CCC(=O)C(Cc1c(F)cccc1F)C(=O)CC`, the melting point is 55 to 56 °C.

The compound `Cn1nc(-c2cc3c(cc2F)OCC(=O)N3)c(Cl)c1C(F)(F)F` gave a melting point of 207 °C.

The compound `COc1ccc(-c2cccc(Cn3cncn3)c2)cc1Cl` yielded a melting point of 78.2 to 78.4 °C.

`NC(=O)N(O)Cc1ccc2c(c1)CCN2CCCc1ccccc1` returned a melting point of 94 to 94.5 °C.

With `CCCc1c(OCCCCCCCC(=O)OC)ccc(C(C)=O)c1O`, the melting point fell in the range of 39 to 41 °C.

On to `O=c1[nH]c(=O)n(C2CC(O)C(CO)O2)cc1C(Cl)=CI` (stereo not drawn), for which the melting point lay within 109 to 111 °C.

`COc1nc(NCCNC(C)C)nc(OC)c1[N+](=O)[O-]`: the melting point came out at 135 °C.

In turn, `CS(=O)(=O)c1cc(C(=O)O)ccc1Oc1ccc([N+](=O)[O-])cc1` returned a melting point of 140 to 150 °C.

`CCOCC(=O)SSc1ccc([N+](=O)[O-])cc1C(Cl)(Cl)Cl` had a melting point of 89 °C.

With `Cc1cccc2sc(-n3nc(CCCO)cc3-c3ccc(Cl)cc3)nc12`, the melting point was 112 to 114 °C.

The compound `CCOC1(OCC)OC(C)=C(C(=O)OC)[C@@H](NC(C)=O)[C@@H]1C` (relative stereo) registered a melting point of 87 to 88 °C.

Regarding `CCOC(=O)C1=NN(C(=O)c2ccccc2I)C(C(=O)OCC)=NN1C(=O)c1ccccc1I`, the melting point fell in the range of 186 to 187 °C.

In turn, `COc1ccc2c(c1)-c1c(ccn1C[C@@H](C)O)C2` yielded a melting point of 75 °C.

Consider `CC(C)(C)C(O)(C=Cc1ccc(Cl)cc1)Cn1ccnc1` (stereo not drawn), for which the melting point fell in the range of 139 to 141 °C.

On to `CCCC(=NOCC)C1=C(O)CC(c2c(C)c(C)c(C)c3c2OCC3)CC1=O` (stereo not drawn), for which the melting point was 108 °C.

As for `COc1ccc(Cl)cc1NC(=O)[C@H]1[C@H](c2cccc(C)c2)C1(C)C` (relative stereo), the melting point lay in the range of 148 to 150 °C.

For the compound `CCCCCCCCSc1nc2cc(Cl)ccc2[nH]1`, the melting point fell in the range of 66 to 67 °C.

Compound `CC(=O)Nc1ccc(SCC(=O)NCC(=O)N(C)c2ccc(Cl)c(COc3cccc4ccc(C)nc34)c2Cl)cc1` displayed a melting point of 179 to 180 °C.

On to `O=c1ccc(-c2cccc(-c3ccc(=O)[nH]n3)c2)n[nH]1`, for which the melting point was over 250 °C.

In turn, `CC(Cc1c[nH]c2ccccc12)(NC(=O)OC1C2CC3CC(C2)CC1C3)C(=O)NC1(CC(=O)O)CCCCC1` (stereo not drawn) had a melting point of 174 °C.

Turning to `CCOC(=O)C1=C(C)NC(N)=C(C(=O)OCC)C1c1ccccc1C#N` (stereo not drawn), the melting point is 208 °C.

In turn, `O=C(CC1c2ccccc2C(=O)N1c1ccc(Cl)cn1)N1CCCCC1` (stereo not drawn) had a melting point of 165 to 166 °C.

In turn, `CCOC(=O)CC(=O)Nc1ccc(F)cc1` yielded a melting point of 68 to 71 °C.

Compound `O=c1c2c(Cl)cc(N3CCNCC3)cc2n(Cc2ccccc2)c(=O)n1Cc1cccc(I)c1` had a melting point of 98 to 104 °C.

Compound `NNc1nc2cc(Cl)c(Cl)cc2nc1Cl` registered a melting point of under 260 °C.

In the case of `CCOC(=O)c1[nH]c2cc(-c3ccccc3)ccc2c1N`, the melting point lay in the range of 181 to 183 °C.

In turn, `Cc1ccnc(Cl)c1C(=O)O` displayed a melting point of 152 to 154 °C.

Regarding `O=C(Nc1ccc2nc(CN3CCCC3)ccc2c1)N1CCC(c2ccc(F)cc2)CC1`, the melting point fell in the range of 206 to 207 °C.

In turn, `CCC1C(c2cccnc2Cl)=NOC1(C)O` (stereo not drawn) displayed a melting point of 71 °C.

`COc1ccc(C(=O)CCCCCBr)c(Cl)c1Cl` displayed a melting point of 52 to 53 °C.

With `Nc1cc(C(=O)O)cc(S(N)(=O)=O)c1NCc1ccccc1`, the melting point lay within 218 to 219 °C.

`CCN(CC)CCN1C(=O)c2cscc2N(C)c2ccccc21` showed a melting point of 92 to 93 °C.

`COc1cc2nc(-c3ccccn3)nc(N)c2cc1OC` registered a melting point of 248 to 251 °C.

`CS(=O)(=O)c1ccc(C2=C(c3ccc4c(c3)OCO4)CCC2)cc1` yielded a melting point of 140 to 141 °C.

For the compound `NCCc1ccc(OCc2ccccc2)cc1`, the melting point was in the range of 58.7 to 59.6 °C.

The compound `COc1cc(C)c2cc(C(C)O)ccc2c1C` (stereo not drawn) had a melting point of 78 °C.

`CC(Cc1nc(-c2ccccc2)nc2ccccc12)C(=O)N(C)C(C)C` (stereo not drawn) yielded a melting point of 171 °C.

As for `O=C(NCC12CC3CC(CC(C3)C1)C2)c1cc(CCCNCCCO)ncc1Cl`, the melting point is 84 to 85 °C.

Compound `CCCCCCCCCCCCCCCC(=O)OCC1(O)COC(O)(COC(=O)CCCCCCCCCCCCCCC)CO1` (stereo not drawn) showed a melting point of 95.2 °C.

In the case of `C=CCc1cc(-c2ccc(F)cc2)cc(C(=O)O)c1O`, the melting point was in the range of 170 to 172 °C.
